Experiment [1] deals with T1, CDK6 cyclin D1 (Homo sapiens, UniProt Q00534).
T1 construct: purchased Reaction Biology (USA), contract assay
Description: CDK6 enzyme inhibitory ability (Reaction Biology). It counts as biochemical. Conditions: measured in Reaction Biology (USA). The procedure:
In order to evaluate the CDK4 and CDK6 enzyme inhibitory activities of the example compounds according to the present invention, IC5O (nM) was measured for the CDK4 cyclin D1 and CDK6 cyclin D1 enzymes in Reaction Biology (USA), and the results were shown in Table 3 below.

Experiment [2] addresses T2, human GST-HPK1 (1-346) (Homo sapiens, UniProt Q92918).
T2 construct: purified human GST-HPK1 (1-346, Signalchem) enzyme; purchased Signalchem
T2 sequence (Q92918 1-346): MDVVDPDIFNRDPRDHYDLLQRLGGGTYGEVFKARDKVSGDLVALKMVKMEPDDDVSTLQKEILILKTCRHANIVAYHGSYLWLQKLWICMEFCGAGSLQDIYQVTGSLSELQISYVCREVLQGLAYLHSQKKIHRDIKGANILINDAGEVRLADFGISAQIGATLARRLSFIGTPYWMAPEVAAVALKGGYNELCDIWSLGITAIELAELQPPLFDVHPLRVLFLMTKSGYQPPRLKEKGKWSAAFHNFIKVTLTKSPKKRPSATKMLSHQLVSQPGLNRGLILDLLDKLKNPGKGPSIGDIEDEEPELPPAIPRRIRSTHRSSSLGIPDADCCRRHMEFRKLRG
Briefly: HPK1 enzyme inhibitory ability (ADP-Glo kinase assay). Format: biochemical. Conditions: human GST-HPK1 3 ng, ATP 3 uM, 25° C. 2 hours. A digest of the protocol: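 Human GST-HPK1(1-346), 3 ng, reacted with 3 uM ATP and specific substrate in 40 mM Tris-HCl pH 7.4, 20 mM MgCl2, 0.5 mg/mL BSA, 50 uM DTT for 2 h at 25° C. ADP-Glo luminescence read; IC50 (nM) relative to untreated solvent control.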
(In general: ADP-Glo turns the ADP formed in a reaction into a luminescent signal.)

Experiment [3] deals with T3, MELK (Homo sapiens, UniProt Q14680).
T3 construct: purchased DiscoverX scanMAX kinase assay panel
Briefly: scanMAX kinase assay panel. It counts as binding. Conditions: read-out: control percentage (% control). In a few lines:
(§1)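 Compound was applied as a 1 μM solution in DMSO across the scanMAX kinase panel. Activity is reported as % control, scaled between a positive control (0%) and the DMSO negative control (100%).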

Experiment [4] addresses T4, FES (Homo sapiens, UniProt P07332).
T4 construct: purchased DiscoverX scanMAX kinase assay panel
Briefly: scanMAX kinase assay panel. Conditions: read-out: control percentage (% control). Format: binding. In a few lines:
as §1

Experiment [5] has as its target T5, DLK (Homo sapiens, UniProt Q12852).
T5 construct: purchased DiscoverX scanMAX kinase assay panel
Description: scanMAX kinase assay panel. Format: binding. Conditions: read-out: control percentage (% control). A digest of the protocol: as §1

Experiment [6] has as its target T6, MEK2 (Homo sapiens, UniProt P36507).
T6 construct: purchased DiscoverX scanMAX kinase assay panel
Description: scanMAX kinase assay panel. It counts as binding. Conditions: read-out: control percentage (% control). In a few lines: as §1

For experiment [7], the system named is FLT3(ITD). Description: scanMAX kinase assay panel. Format: binding. Conditions: 1 μM. A digest of the protocol: as §1
The target of experiment [8] is T7, BLK (Homo sapiens, UniProt P51451).
T7 construct: purchased DiscoverX (scanMAX panel, contract assay)
Description: scanMAX kinase assay panel. Format: binding. Conditions: read-out: control percentage (% control). A digest of the protocol:
as §1

Experiment [9] has as its target T8, PRP4 (Homo sapiens, UniProt Q13523).
T8 construct: purchased DiscoverX scanMAX kinase assay panel
Description: scanMAX kinase assay panel. It counts as binding. Conditions: read-out: control percentage (% control). A digest of the protocol:
as §1

In experiment [10] the target is T9, RET(V804L) (Homo sapiens, UniProt P07949, V804L).
T9 construct: purchased DiscoverX scanMAX kinase assay panel
Description: scanMAX kinase assay panel. Format: binding. Conditions: read-out: control percentage (% control). A digest of the protocol: as §1

The target of experiment [11] is T10, LRRK2(G2019S) (Homo sapiens, UniProt Q5S007, G2019S).
T10 construct: purchased DiscoverX scanMAX kinase assay panel
Briefly: scanMAX kinase assay panel. It counts as binding. Conditions: read-out: control percentage (% control). In a few lines:
as §1

For experiment [12], the target named is T11, RET(V804M) (Homo sapiens, UniProt P07949, V804M).
T11 construct: purchased DiscoverX scanMAX kinase assay panel
Description: scanMAX kinase assay panel. It counts as binding. Conditions: read-out: control percentage (% control). In a few lines: as §1

Experiment [13] addresses T12, RSK4(Kin.Dom.2-C-terminal) (Homo sapiens, UniProt Q9UK32).
T12 construct: RSK4(Kin.Dom.2-C-terminal); purchased DiscoverX scanMAX kinase assay panel
Briefly: scanMAX kinase assay panel. Conditions: read-out: control percentage (% control). It counts as binding. In a few lines: as §1

The target in experiment [14] is T13, PIK4CB (Homo sapiens, UniProt Q9UBF8).
T13 construct: purchased DiscoverX scanMAX kinase assay panel
Description: scanMAX kinase assay panel. Conditions: read-out: control percentage (% control). Format: binding. In a few lines: as §1

Experiment [15] has as its target T14, RET(M918T) (Homo sapiens, UniProt P07949, M918T).
T14 construct: purchased DiscoverX scanMAX kinase assay panel
Briefly: scanMAX kinase assay panel. Format: binding. Conditions: read-out: control percentage (% control). A digest of the protocol: as §1

Experiment [16] deals with T15, RET (Homo sapiens, UniProt P07949).
T15 construct: purchased DiscoverX scanMAX kinase assay panel
Briefly: scanMAX kinase assay panel. Format: binding. Conditions: read-out: control percentage (% control). A digest of the protocol: as §1

In experiment [17] the target is T16, SYK (Homo sapiens, UniProt P43405).
T16 construct: purchased DiscoverX
Description: scanMAX kinase assay panel. Format: binding. Conditions: read-out: control percentage (% control). A digest of the protocol:
as §1

For experiment [18], the target named is T17, MAP4K3 (Homo sapiens, UniProt Q8IVH8).
T17 construct: purchased DiscoverX scanMAX kinase assay panel
Briefly: scanMAX kinase assay panel. Format: binding. Conditions: read-out: control percentage (% control). A digest of the protocol:
as §1

Experiment [19] addresses T18, ITK (Homo sapiens, UniProt Q08881).
T18 construct: purchased DiscoverX scanMAX kinase assay panel
Description: scanMAX kinase assay panel. Format: binding. Conditions: read-out: control percentage (% control). In a few lines:
as §1

Here are results for one molecule from US20220242870A1, “HETEROCYCLE-FUSED PYRIMIDINE DERIVATIVE AND USE THEREOF” (VORONOI Inc., priority 2019, published 2022).

Each structure is given as a SMILES string.

T3 sequence (Q14680 whole entry): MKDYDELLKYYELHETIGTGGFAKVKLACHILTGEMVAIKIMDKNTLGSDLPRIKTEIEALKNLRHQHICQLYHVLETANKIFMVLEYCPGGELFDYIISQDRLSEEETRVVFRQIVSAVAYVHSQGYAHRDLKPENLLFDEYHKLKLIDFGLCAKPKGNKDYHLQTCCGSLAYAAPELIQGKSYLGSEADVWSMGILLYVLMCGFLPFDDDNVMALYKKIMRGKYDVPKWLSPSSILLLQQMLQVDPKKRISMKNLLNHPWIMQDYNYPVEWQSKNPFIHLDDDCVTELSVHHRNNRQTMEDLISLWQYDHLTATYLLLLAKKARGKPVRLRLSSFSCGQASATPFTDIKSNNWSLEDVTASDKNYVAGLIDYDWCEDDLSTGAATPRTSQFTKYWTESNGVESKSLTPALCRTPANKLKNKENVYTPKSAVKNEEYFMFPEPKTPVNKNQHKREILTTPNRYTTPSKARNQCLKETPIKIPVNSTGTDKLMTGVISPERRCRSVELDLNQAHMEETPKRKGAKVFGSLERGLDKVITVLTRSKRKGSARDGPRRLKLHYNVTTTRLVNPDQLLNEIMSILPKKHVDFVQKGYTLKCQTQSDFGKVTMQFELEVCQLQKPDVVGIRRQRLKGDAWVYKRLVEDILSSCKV
T11 sequence (P07949 29-1114 V804M): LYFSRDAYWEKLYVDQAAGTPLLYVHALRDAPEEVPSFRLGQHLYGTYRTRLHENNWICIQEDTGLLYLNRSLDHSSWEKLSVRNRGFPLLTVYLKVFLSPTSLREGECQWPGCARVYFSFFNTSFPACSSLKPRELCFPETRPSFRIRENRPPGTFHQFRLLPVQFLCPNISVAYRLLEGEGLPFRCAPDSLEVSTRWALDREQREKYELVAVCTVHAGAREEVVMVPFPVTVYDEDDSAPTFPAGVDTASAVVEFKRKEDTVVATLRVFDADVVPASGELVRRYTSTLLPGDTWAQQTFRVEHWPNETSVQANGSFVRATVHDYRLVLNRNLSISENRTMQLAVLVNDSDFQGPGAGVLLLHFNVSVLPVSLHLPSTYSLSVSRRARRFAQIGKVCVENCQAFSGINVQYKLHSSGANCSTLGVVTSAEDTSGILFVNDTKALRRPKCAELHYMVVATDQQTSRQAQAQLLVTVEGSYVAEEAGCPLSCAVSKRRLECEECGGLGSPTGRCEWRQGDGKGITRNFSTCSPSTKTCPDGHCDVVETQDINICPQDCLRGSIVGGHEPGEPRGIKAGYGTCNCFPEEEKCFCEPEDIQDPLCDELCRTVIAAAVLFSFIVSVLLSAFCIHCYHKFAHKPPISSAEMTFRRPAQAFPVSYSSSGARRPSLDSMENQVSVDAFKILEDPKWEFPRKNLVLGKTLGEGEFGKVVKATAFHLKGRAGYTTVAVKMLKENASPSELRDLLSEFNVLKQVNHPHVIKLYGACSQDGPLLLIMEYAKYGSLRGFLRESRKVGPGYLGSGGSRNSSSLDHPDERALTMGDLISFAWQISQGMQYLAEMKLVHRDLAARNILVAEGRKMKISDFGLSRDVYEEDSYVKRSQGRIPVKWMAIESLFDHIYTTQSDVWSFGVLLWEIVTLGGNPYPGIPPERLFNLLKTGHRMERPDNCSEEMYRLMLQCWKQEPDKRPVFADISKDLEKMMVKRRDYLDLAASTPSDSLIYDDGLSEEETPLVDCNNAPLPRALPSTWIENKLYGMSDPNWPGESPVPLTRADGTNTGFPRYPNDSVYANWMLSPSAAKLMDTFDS
T15 sequence (P07949 29-1114): as the sequence (P07949 29-1114 V804M) above, with M776V counted along it
T8 sequence (Q13523 whole entry): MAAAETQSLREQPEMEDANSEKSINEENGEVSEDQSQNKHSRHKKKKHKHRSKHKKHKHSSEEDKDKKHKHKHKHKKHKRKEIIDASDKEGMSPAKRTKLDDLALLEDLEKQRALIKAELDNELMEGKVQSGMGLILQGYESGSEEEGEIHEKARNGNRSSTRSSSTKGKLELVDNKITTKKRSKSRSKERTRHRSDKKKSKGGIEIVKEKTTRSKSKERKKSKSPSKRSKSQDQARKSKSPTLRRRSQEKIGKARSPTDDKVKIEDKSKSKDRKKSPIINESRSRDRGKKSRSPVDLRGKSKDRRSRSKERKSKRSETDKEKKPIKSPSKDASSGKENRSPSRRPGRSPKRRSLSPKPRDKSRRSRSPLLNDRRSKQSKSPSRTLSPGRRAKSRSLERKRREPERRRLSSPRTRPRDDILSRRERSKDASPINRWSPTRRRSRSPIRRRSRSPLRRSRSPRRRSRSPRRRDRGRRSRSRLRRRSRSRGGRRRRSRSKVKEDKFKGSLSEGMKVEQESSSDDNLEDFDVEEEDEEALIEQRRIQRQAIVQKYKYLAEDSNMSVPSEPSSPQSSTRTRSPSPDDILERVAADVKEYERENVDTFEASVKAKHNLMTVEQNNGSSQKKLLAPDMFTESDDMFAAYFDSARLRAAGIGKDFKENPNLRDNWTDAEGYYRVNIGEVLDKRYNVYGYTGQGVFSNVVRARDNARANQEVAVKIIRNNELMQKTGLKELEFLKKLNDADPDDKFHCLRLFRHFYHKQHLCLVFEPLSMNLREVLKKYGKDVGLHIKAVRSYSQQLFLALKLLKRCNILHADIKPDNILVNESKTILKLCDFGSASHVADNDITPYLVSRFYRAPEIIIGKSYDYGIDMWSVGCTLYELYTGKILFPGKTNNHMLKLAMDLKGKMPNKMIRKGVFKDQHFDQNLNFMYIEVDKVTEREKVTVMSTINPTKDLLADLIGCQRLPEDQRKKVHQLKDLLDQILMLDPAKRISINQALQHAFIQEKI
T1 sequence (Q00534 whole entry): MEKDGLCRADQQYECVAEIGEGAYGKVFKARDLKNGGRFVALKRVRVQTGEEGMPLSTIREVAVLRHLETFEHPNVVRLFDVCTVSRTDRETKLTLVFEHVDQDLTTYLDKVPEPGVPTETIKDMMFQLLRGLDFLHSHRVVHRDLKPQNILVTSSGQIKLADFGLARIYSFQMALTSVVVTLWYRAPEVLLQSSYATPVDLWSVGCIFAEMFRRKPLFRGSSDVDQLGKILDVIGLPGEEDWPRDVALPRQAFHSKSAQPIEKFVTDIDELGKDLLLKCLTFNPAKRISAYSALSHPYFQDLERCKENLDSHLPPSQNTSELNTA
T1 sequence (P24385 whole entry partner): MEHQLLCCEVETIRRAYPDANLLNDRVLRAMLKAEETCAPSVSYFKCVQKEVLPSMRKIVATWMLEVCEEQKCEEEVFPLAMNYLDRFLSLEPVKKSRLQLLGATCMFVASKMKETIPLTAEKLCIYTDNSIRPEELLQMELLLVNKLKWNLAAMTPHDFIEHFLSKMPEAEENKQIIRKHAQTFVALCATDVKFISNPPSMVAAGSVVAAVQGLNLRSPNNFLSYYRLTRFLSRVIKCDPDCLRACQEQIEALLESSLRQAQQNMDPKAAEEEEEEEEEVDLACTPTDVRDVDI
T14 sequence (P07949 29-1114 M918T): as the sequence (P07949 29-1114 V804M) above, with M776V, M890T counted along it
T6 sequence (P36507 whole entry): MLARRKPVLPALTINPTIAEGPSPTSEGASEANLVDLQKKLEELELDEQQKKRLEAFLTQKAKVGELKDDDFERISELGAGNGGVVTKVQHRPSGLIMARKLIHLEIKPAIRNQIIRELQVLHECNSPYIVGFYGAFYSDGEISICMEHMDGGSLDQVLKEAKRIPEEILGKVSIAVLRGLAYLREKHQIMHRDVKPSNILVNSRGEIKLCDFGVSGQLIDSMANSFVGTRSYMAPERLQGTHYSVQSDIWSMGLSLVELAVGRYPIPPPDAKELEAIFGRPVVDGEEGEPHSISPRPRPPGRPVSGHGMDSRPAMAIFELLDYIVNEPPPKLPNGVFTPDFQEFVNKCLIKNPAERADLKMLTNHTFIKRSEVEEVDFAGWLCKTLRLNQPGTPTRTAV
T7 sequence (P51451 whole entry): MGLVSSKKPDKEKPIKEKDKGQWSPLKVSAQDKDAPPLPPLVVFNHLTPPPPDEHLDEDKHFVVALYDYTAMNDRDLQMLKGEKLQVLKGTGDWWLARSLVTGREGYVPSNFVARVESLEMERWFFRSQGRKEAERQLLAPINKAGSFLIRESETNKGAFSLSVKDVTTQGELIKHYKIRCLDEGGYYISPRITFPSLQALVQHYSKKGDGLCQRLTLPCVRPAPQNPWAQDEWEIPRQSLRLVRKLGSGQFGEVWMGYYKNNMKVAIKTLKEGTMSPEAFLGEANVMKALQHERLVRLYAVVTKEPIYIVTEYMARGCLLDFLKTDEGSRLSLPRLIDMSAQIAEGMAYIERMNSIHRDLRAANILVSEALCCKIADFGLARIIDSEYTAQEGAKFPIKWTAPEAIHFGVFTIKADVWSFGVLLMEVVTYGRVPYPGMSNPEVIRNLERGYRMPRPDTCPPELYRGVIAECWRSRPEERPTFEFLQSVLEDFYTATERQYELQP
T18 sequence (Q08881 whole entry): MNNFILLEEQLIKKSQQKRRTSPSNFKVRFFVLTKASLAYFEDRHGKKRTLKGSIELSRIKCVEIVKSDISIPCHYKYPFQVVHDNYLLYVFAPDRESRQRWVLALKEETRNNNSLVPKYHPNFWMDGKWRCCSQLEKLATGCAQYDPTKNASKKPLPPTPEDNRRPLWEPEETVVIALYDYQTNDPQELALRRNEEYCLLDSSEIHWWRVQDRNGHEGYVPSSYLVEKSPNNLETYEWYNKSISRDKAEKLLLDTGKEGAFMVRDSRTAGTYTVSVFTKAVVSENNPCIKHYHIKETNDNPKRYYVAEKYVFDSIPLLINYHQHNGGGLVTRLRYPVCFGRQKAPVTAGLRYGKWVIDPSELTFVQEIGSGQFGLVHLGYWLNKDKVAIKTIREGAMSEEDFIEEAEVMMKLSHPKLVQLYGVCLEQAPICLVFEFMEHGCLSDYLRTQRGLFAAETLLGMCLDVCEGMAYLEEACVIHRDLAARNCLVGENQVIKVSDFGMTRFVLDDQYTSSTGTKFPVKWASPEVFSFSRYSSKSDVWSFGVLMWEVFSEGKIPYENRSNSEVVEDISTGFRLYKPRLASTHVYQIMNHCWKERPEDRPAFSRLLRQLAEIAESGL
T9 sequence (P07949 29-1114 V804L): as the sequence (P07949 29-1114 V804M) above, with M776L counted along it

A word on the IC50: it is the concentration at which inhibition is half-maximal. Low values mean greater potency in that assay, high ones weaker potency in that assay. For the molecule `CN1CCN(c2ccc(Nc3nc(N4OCC[C@H]4c4ccccc4)c4cc[nH]c4n3)cc2)CC1` [Example 74, (S)-N-(4-(4-methylpiperazin-1-yl)phenyl)-4-(3-phenylisoxazolidin-2-yl)-7H-pyrrolo[2,3-d]pyrimidin-2-amine], the concentration for half-maximal inhibition (IC50) in experiment [1] and in [2] was at least 250 nM each time. Also, the remaining binding at 1 µM in experiment [3] amounted to 2%; in experiment [4], 32%; in [5], 9.2%; in [6] it was 17%; in experiment [8], 19%; in experiment [9], 20%. Further, the remaining binding at 1 µM in [10] came to 5.3%; in experiment [11], 25%; in experiment [12], 3.9%; in experiment [13] it was 31%; in [14], 16%; in experiment [15], 20%. Further, the remaining binding at 1 µM amounted to 20% in [16], 32% in experiment [17], 13% in experiment [18] and 5.1% in experiment [19]. Also, the “control percentage (% control)” value in experiment [7] is given as 0.45%.
